Each structure is given as a SMILES string.

A word on the EC50: it is the concentration that produces a half-maximal response.

Assay [1] concerns M. tuberculosis H37Rv. The settings on record: for EC50: M. tuberculosis growth, 1 week incubation, mean ± SD (n = 3) for JCP276, BMB034, BMB038, others single dose-response experiment (n = 1).
Assay [2] deals with BMB034-labeled proteins (serine hydrolases) of M. tuberculosis H37Rv. As to the kind of experiment: Competitive ABPP in live cells with BMB034 probe, gel-based. The following applies: pre-treatment of cultures 1 h; 1 μM BMB034 labeling; JCP276 at 1 or 10 μM.

Regarding `C#CCCOc1oc(=O)c2cc(NC(=O)Nc3ccccc3)ccc2c1Cl` [BMB034, 1-(3-(but-3-yn-1-yloxy)-4-chloro-1-oxo-1H-isochromen-7-yl)-3-phenylurea], the concentration giving a half-maximal response (EC50) in assay [1] came to 8.7 ± 1.1 µM. Regarding `C#Cc1ccc(NC(=O)Nc2ccc3c(Cl)c(OCCCBr)oc(=O)c3c2)cc1` [BMB038, 1-(3-(3-bromopropoxy)-4-chloro-1-oxo-1H-isochromen-7-yl)-3-(4-ethynylphenyl)urea], the EC50 in assay [1] was 36 ± 11 µM. For `O=c1oc(Cl)c(Cl)c2ccccc12` [DCI, 3,4-dichloroisocoumarin], in assay [2], the “competition with BMB034 labeling” value is given as “did not compete”. Moreover, the “inhibition of M. tuberculosis growth” value in assay [1] (negative control compound) is given as “does not inhibit M. tuberculosis growth”.

Values taken from PMC9252067 (Cell chemical biology, 2021).
